Results from ChEMBL document CHEMBL1122713, “Isomeric N-methyl-7-deazaguanines: synthesis, structural assignment, and inhibitory activity on xanthine oxidase” (J Med Chem, 1984).

Target: Xanthine dehydrogenase/oxidase (Bos taurus, UniProt P80457)
Assay: Compound is evaluated for competitive inhibition against xanthine oxidase from cow's milk

Sequence of Xanthine dehydrogenase/oxidase (P80457 whole entry): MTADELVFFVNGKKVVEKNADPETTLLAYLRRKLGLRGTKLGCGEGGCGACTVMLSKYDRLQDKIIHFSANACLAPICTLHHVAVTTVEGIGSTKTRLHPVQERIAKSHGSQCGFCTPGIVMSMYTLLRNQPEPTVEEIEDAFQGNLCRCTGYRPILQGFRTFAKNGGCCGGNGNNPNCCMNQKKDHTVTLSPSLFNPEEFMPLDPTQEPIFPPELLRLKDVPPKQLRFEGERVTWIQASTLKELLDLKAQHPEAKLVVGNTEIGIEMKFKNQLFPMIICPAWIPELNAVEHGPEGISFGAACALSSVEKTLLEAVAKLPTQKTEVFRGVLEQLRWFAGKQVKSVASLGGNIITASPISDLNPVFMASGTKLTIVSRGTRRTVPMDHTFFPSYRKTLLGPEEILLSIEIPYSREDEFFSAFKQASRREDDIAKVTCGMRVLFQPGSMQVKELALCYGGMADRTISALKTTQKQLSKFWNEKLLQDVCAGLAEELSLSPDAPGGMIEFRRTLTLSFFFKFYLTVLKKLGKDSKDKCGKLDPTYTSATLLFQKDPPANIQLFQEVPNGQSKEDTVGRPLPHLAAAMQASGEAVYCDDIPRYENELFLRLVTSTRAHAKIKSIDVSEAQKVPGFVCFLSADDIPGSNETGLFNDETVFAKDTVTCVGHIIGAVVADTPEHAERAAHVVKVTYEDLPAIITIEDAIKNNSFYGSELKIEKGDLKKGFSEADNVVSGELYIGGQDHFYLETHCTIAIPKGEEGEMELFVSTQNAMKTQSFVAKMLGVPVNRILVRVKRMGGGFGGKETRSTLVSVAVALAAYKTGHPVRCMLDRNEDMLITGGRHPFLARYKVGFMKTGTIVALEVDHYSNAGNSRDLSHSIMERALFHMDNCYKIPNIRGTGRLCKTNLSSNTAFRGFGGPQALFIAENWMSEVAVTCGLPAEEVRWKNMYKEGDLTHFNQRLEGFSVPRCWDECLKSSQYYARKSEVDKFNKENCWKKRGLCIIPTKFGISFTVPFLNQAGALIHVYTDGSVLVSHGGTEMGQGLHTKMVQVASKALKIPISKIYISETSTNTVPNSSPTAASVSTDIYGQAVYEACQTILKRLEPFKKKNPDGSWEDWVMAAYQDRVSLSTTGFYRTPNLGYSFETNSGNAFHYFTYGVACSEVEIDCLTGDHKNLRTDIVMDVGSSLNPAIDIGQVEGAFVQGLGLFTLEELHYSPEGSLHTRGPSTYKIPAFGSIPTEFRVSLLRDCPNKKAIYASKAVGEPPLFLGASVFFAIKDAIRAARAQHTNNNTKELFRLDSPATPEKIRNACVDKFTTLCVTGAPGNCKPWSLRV

Ki	Structure (SMILES)
4.5 µM	Cn1c(N)nc(O)c2ccnc1-2
3 µM	Cn1ccc2c(=O)[nH]c(N)nc21
40 µM	Cn1c(N)nc2nccc-2c1O
3 µM	Nc1nc2c(c(=O)[nH]1)CC=N2 [7-DEAZAGUANINE]
